Laboratory results reported in patent publication US12552846B2, “Modified BCL9 mimetic peptides” (Sapience Therapeutics, Inc., priority 2019, dated 2026).
Square brackets hold non-standard residues; d marks the D form. Peptide text beside a SMILES is read from it. d1Nal = N[C@H](Cc1cccc2ccccc12)C(=O)O; d2Nal = N[C@H](Cc1ccc2ccccc2c1)C(=O)O

The compounds below were run on HL60 promyelocytic leukemia cells (assay: Cytotoxicity assay in HL60 cells (Annexin V FITC / PI flow cytometry)). Settings: 48 hours.
Assay type: cell-based
Method: We examined the cytotoxicity of peptides BCL-26 and BCL-27 using an assay in HL60 promyelocytic leukemia cells. HL60 PML suspension cells were set at a density of 3.5×10^3 cells/well in 150 μL of RPMI+1.5% fetal bovine serum (FBS) in a 96 well dish. BCL-26 or BCL-27, reconstituted at a concentration of 10 mg/mL in 20 mM His, pH 7.5, was added to each well at a volume of 50 μL to a final concentration range of 0-80 μM. Cells were incubated with peptide for 48 hours at 37° C. Cell viability was quantified by flow cytometry using abcam Annexin V FITC apoptosis detection kit. Briefly, cells were washed with PBS and resuspended in 1× assay buffer containing Annexin V FITC and propidium iodide (PI). Annexin V detects apoptotic cells, and PI stains dead cells. After staining, apoptotic cells show green fluorescence, dead cells show red and green fluorescence, and live cells show little or no fluorescence. Cells were selected for analysis based on forward scatter (FSC) vs. side scatter (SSC), and analyzed by BD Accuri C6 Plus flow cytometer to detect Annexin V-FITC binding (Ex=488 nm; Em=530 nm) using FITC signal detector and PI staining by the phycoerythrnn emission signal detector. Percentage of Annexin V^low and PI^low were quantified and presented as % Viability.
We examined the cytotoxicity of additional retro inverso and mixed chirality BCL9 mimetic peptides in HL60 cells using the assay described above.

CC(C)C[C@@H](NC(=O)[C@@H](CCC(N)=O)NC(=O)[C@@H](C)NC(=O)[C@@H](CC(C)C)NC(=O)[C@@H](CCCNC(=N)N)NC(=O)[C@@H](C)NC(=O)[C@@H](CC(C)C)NC(=O)[C@@H](CCC(N)=O)NC(=O)[C@@H](CCCNC(=N)N)NC(=O)[C@@H](C)NC(=O)[C@@H](CC(C)C)NC(=O)[C@@H](Cc1c[nH]c2ccccc12)NC(=O)[C@H](N)Cc1c[nH]c2ccccc12)C(=O)N[C@H](C)C(=O)O [BCL-12] (H-[dW][dW][dL][dA][dR][dQ][dL][dA][dR][dL][dA][dQ][dL][dA]-OH; N-terminus and C-terminus assumed) was tested, and the cytotoxic activity was “no cytotoxic activity”.

Same assay, conditions: 48 hours, 0-80 μM, % Viability (Annexin V low, PI low)

CC(C)C[C@@H](NC(=O)[C@@H](CCC(N)=O)NC(=O)[C@@H](C)NC(=O)[C@@H](CC(C)C)NC(=O)[C@@H](CCCNC(=N)N)NC(=O)[C@@H](C)NC(=O)[C@@H](CC(C)C)NC(=O)[C@@H](CCC(N)=O)NC(=O)[C@@H](CCCNC(=N)N)NC(=O)[C@@H](C)NC(=O)[C@@H](CC(C)C)NC(=O)[C@@H](Cc1c[nH]c2ccccc12)NC(=O)[C@H](N)Cc1c[nH]c2ccccc12)C(=O)N[C@H](C)C(=O)O [BCL-12] (H-[dW][dW][dL][dA][dR][dQ][dL][dA][dR][dL][dA][dQ][dL][dA]-OH; N-terminus and C-terminus assumed) and CC(C)C[C@@H](NC(=O)[C@@H](Cc1c[nH]c2ccccc12)NC(=O)[C@H](N)Cc1c[nH]c2ccccc12)C(=O)N[C@H](C)C(=O)N[C@H](CCCNC(=N)N)C(=O)N[C@H](CCC(N)=O)C(=O)N[C@H](CC(C)C)C(=O)N[C@H](CCC(=O)O)C(=O)N[C@H](CCCNC(=N)N)C(=O)N[C@H](CC(C)C)C(=O)N[C@H](C)C(=O)N[C@H](CCC(N)=O)C(=O)N[C@H](CC(C)C)C(=O)N[C@H](C)C(=O)N[C@H](CCCCN)C(=O)N[C@H](CC(C)C)C(=O)N[C@@H](C(=O)N1CCC[C@@H]1C(=O)N[C@@H](C(=O)O)C(C)C)[C@H](C)O [BCL-76] (H-[dW][dW][dL][dA][dR][dQ][dL][dE][dR][dL][dA][dQ][dL][dA][dK][dL][dT][dP][dV]-OH; N-terminus and C-terminus assumed) cannot be ordered by EC50: greater than 80000 nM for the first, greater than 10000 nM for the second.

CC(C)C[C@@H](NC(=O)[C@@H](Cc1c[nH]c2ccccc12)NC(=O)[C@H](N)Cc1cccc2ccccc12)C(=O)N[C@H](C)C(=O)N[C@H](CCCNC(=N)N)C(=O)N[C@H](CCC(N)=O)C(=O)N[C@H](CC(C)C)C(=O)N[C@H](C)C(=O)N[C@H](CCCNC(=N)N)C(=O)N[C@H](CC(C)C)C(=O)N[C@H](C)C(=O)N[C@H](CCC(N)=O)C(=O)N[C@H](CC(C)C)C(=O)N[C@H](C)C(=O)N[C@H](CCCCN)C(=O)N[C@H](CC(C)C)C(=O)N[C@@H](C(=O)N1CCC[C@@H]1C(=O)N[C@@H](C(=O)O)C(C)C)[C@H](C)O [BCL-77] (H-[d1Nal][dW][dL][dA][dR][dQ][dL][dA][dR][dL][dA][dQ][dL][dA][dK][dL][dT][dP][dV]-OH; N-terminus and C-terminus assumed) and CC(C)C[C@@H](NC(=O)[C@@H](Cc1c[nH]c2ccccc12)NC(=O)[C@H](N)Cc1ccc2ccccc2c1)C(=O)N[C@H](C)C(=O)N[C@H](CCCNC(=N)N)C(=O)N[C@H](CCC(N)=O)C(=O)N[C@H](CC(C)C)C(=O)N[C@H](C)C(=O)N[C@H](CCCNC(=N)N)C(=O)N[C@H](CC(C)C)C(=O)N[C@H](C)C(=O)N[C@H](CCC(N)=O)C(=O)N[C@H](CC(C)C)C(=O)N[C@H](C)C(=O)N[C@H](CCCCN)C(=O)N[C@H](CC(C)C)C(=O)N[C@@H](C(=O)N1CCC[C@@H]1C(=O)N[C@@H](C(=O)O)C(C)C)[C@H](C)O [BCL-78] (H-[d2Nal][dW][dL][dA][dR][dQ][dL][dA][dR][dL][dA][dQ][dL][dA][dK][dL][dT][dP][dV]-OH; N-terminus and C-terminus assumed) cannot be ordered by EC50: less than 2000 nM for the first, less than 2000 nM for the second.

First: CC(C)C[C@@H](NC(=O)[C@@H](Cc1c[nH]c2ccccc12)NC(=O)[C@H](N)Cc1ccccc1)C(=O)N[C@H](C)C(=O)N[C@H](CCCNC(=N)N)C(=O)N[C@H](CCC(N)=O)C(=O)N[C@H](CC(C)C)C(=O)N[C@H](C)C(=O)N[C@H](CCCNC(=N)N)C(=O)N[C@H](CC(C)C)C(=O)N[C@H](C)C(=O)N[C@H](CCC(N)=O)C(=O)N[C@H](CC(C)C)C(=O)N[C@H](C)C(=O)N[C@H](CCCCN)C(=O)N[C@H](CC(C)C)C(=O)N[C@@H](C(=O)N1CCC[C@@H]1C(=O)N[C@@H](C(=O)O)C(C)C)[C@H](C)O [BCL-79] (H-[dF][dW][dL][dA][dR][dQ][dL][dA][dR][dL][dA][dQ][dL][dA][dK][dL][dT][dP][dV]-OH; N-terminus and C-terminus assumed)
Second: CC(C)C[C@@H](NC(=O)[C@@H](Cc1ccccc1)NC(=O)[C@H](N)Cc1c[nH]c2ccccc12)C(=O)N[C@H](C)C(=O)N[C@H](CCCNC(=N)N)C(=O)N[C@H](CCC(N)=O)C(=O)N[C@H](CC(C)C)C(=O)N[C@H](C)C(=O)N[C@H](CCCNC(=N)N)C(=O)N[C@H](CC(C)C)C(=O)N[C@H](C)C(=O)N[C@H](CCC(N)=O)C(=O)N[C@H](CC(C)C)C(=O)N[C@H](C)C(=O)N[C@H](CCCCN)C(=O)N[C@H](CC(C)C)C(=O)N[C@@H](C(=O)N1CCC[C@@H]1C(=O)N[C@@H](C(=O)O)C(C)C)[C@H](C)O [BCL-81] (H-[dW][dF][dL][dA][dR][dQ][dL][dA][dR][dL][dA][dQ][dL][dA][dK][dL][dT][dP][dV]-OH; N-terminus and C-terminus assumed)
The EC50 of the first is lower: less than 2000 nM for the first, 2000 to 10000 nM for the second.

CC(C)C[C@@H](NC(=O)[C@@H](Cc1c[nH]c2ccccc12)NC(=O)[C@H](N)Cc1c[nH]c2ccccc12)C(=O)N[C@H](C)C(=O)N[C@H](CCCNC(=N)N)C(=O)N[C@H](CCC(N)=O)C(=O)N[C@H](CC(C)C)C(=O)N[C@H](C)C(=O)N[C@H](CCCNC(=N)N)C(=O)N[C@H](CC(C)C)C(=O)N[C@H](CCCNC(=N)N)C(=O)N[C@H](CCC(N)=O)C(=O)N[C@H](CC(C)C)C(=O)N[C@H](C)C(=O)N[C@H](CCCCN)C(=O)N[C@H](CC(C)C)C(=O)N[C@@H](C(=O)N1CCC[C@@H]1C(=O)N[C@@H](C(=O)O)C(C)C)[C@H](C)O [BCL-80] (H-[dW][dW][dL][dA][dR][dQ][dL][dA][dR][dL][dR][dQ][dL][dA][dK][dL][dT][dP][dV]-OH; N-terminus and C-terminus assumed) and CC(C)C[C@@H](NC(=O)[C@@H](Cc1c[nH]c2ccccc12)NC(=O)[C@H](N)Cc1c[nH]c2ccccc12)C(=O)N[C@H](C)C(=O)N[C@H](CCCNC(=N)N)C(=O)N[C@H](CCC(N)=O)C(=O)N[C@H](CC(C)C)C(=O)N[C@H](C)C(=O)N[C@H](CCCNC(=N)N)C(=O)N[C@H](CC(C)C)C(=O)N[C@H](CCC(N)=O)C(=O)N[C@H](CCC(N)=O)C(=O)N[C@H](CC(C)C)C(=O)N[C@H](C)C(=O)N[C@H](CCCCN)C(=O)N[C@H](CC(C)C)C(=O)N[C@@H](C(=O)N1CCC[C@@H]1C(=O)N[C@@H](C(=O)O)C(C)C)[C@H](C)O [BCL-85] (H-[dW][dW][dL][dA][dR][dQ][dL][dA][dR][dL][dQ][dQ][dL][dA][dK][dL][dT][dP][dV]-OH; N-terminus and C-terminus assumed) cannot be ordered by EC50: less than 2000 nM for the first, less than 2000 nM for the second.

CC(C)C[C@@H](NC(=O)[C@H](N)Cc1c[nH]c2ccccc12)C(=O)N[C@H](CC(C)C)C(=O)N[C@H](C)C(=O)N[C@H](CCCNC(=N)N)C(=O)N[C@H](CCC(N)=O)C(=O)N[C@H](CC(C)C)C(=O)N[C@H](C)C(=O)N[C@H](CCCNC(=N)N)C(=O)N[C@H](CC(C)C)C(=O)N[C@H](C)C(=O)N[C@H](CCC(N)=O)C(=O)N[C@H](CC(C)C)C(=O)N[C@H](C)C(=O)N[C@H](CCCCN)C(=O)N[C@H](CC(C)C)C(=O)N[C@@H](C(=O)N1CCC[C@@H]1C(=O)N[C@@H](C(=O)O)C(C)C)[C@H](C)O [BCL-82] (H-[dW][dL][dL][dA][dR][dQ][dL][dA][dR][dL][dA][dQ][dL][dA][dK][dL][dT][dP][dV]-OH; N-terminus and C-terminus assumed) and CC(C)C[C@@H](NC(=O)[C@@H](CCCNC(=N)N)NC(=O)[C@@H](C)NC(=O)[C@@H](CC(C)C)NC(=O)[C@@H](CCC(N)=O)NC(=O)[C@@H](CCCNC(=N)N)NC(=O)[C@@H](CCC(=O)O)NC(=O)[C@@H](CC(C)C)NC(=O)[C@@H](Cc1c[nH]c2ccccc12)NC(=O)[C@H](N)Cc1c[nH]c2ccccc12)C(=O)N[C@H](C)C(=O)N[C@H](CCC(N)=O)C(=O)N[C@H](CC(C)C)C(=O)N[C@H](C)C(=O)N[C@H](CCCCN)C(=O)N[C@H](CC(C)C)C(=O)N[C@@H](C(=O)N1CCC[C@@H]1C(=O)N[C@@H](C(=O)O)C(C)C)[C@H](C)O [BCL-83] (H-[dW][dW][dL][dE][dR][dQ][dL][dA][dR][dL][dA][dQ][dL][dA][dK][dL][dT][dP][dV]-OH; N-terminus and C-terminus assumed) fall in the same range of EC50: 2000 to 10000 nM for the first, 2000 to 10000 nM for the second.

With CC(C)C[C@@H](NC(=O)[C@@H](Cc1c[nH]c2ccccc12)NC(=O)[C@H](N)Cc1c[nH]c2ccccc12)C(=O)N[C@H](C)C(=O)N[C@H](CCCNC(=N)N)C(=O)N[C@H](CCC(N)=O)C(=O)N[C@H](CC(C)C)C(=O)N[C@H](C)C(=O)N[C@H](CCCNC(=N)N)C(=O)N[C@H](CC(C)C)C(=O)N[C@H](C)C(=O)N[C@H](CCC(N)=O)C(=O)N[C@H](CC(C)C)C(=O)N[C@H](C)C(=O)N[C@H](CCCNC(=N)N)C(=O)N[C@H](CCC(=O)O)C(=O)N[C@H](CCCNC(=N)N)C(=O)N[C@H](Cc1c[nH]cn1)C(=O)N[C@H](CCC(=O)O)C(=O)N[C@H](CC(C)C)C(=O)N[C@H](CCC(N)=O)C(=O)N[C@H](CCC(=O)O)C(=O)N[C@H](CCC(N)=O)C(=O)N[C@H](CO)C(=O)N[C@H](CC(C)C)C(=O)N[C@H](CCCCN)C(=O)N[C@H](CC(C)C)C(=O)N[C@@H](C(=O)N1CCC[C@@H]1C(=O)N[C@@H](C(=O)O)C(C)C)[C@H](C)O [BCL-84] (H-[dW][dW][dL][dA][dR][dQ][dL][dA][dR][dL][dA][dQ][dL][dA][dR][dE][dR][dH][dE][dL][dQ][dE][dQ][dS][dL][dK][dL][dT][dP][dV]-OH; N-terminus and C-terminus assumed) the EC50 was less than 2000 nM.
